Reference: ChEMBL document CHEMBL1131794, “The synthesis and evaluation of 6-alkylidene-2'beta-substituted penam sulfones as beta-lactamase inhibitors” (Bioorg Med Chem Lett, 1999)
pIC50: −log10 of the molar value.

Tests used:
Beta-lactamase [1] = target: T1, Beta-lactamase (Staphylococcus aureus, UniProt P00807); test: Inhibitory activity against serine Beta-lactamase derived from Staphylococcus aureus
Beta-lactamase TEM = Beta-lactamase TEM (Escherichia coli, UniProt P62593); test: Inhibitory activity against serine Beta-lactamase TEM derived from […]; assay type: single protein
Beta-lactamase TEM, sequence (P62593 whole entry): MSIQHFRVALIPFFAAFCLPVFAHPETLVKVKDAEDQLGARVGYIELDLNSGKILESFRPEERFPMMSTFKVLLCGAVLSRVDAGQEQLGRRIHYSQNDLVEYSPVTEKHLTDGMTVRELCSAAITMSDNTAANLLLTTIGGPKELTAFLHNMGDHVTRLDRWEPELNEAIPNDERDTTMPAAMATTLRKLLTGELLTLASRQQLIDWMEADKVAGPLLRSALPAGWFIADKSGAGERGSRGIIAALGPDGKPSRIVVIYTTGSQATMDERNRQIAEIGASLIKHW

Beta-lactamase [2] = target: T1, Beta-lactamase; test: Inhibitory activity against serine beta-lactamase, PC1 (class A) derived from Staphylococcus aureus
Aeromonas sobria = test: In vitro synergistic activity against Aeromonas sobria (Asb A, OXA-12, Asb M); assay type: functional; also: test concentration or dose not given here
Escherichia coli [3] = test: In vitro synergistic activity against Escherichia coli C600N + (Imi-1); assay type: functional
Escherichia coli [4] = test: In vitro synergistic activity against Escherichia coli C600N + (L1); assay type: functional
Escherichia coli [5] = test: In vitro synergistic activity against Escherichia coli C600N + (MIR-1); assay type: functional
Escherichia coli [6] = test: In vitro synergistic activity against Escherichia coli C600N + (PSE-1); assay type: functional
Escherichia coli [7] = test: In vitro synergistic activity against Escherichia coli C600N + (Sme-1); assay type: functional
Escherichia coli [8] = test: In vitro synergistic activity against Escherichia coli C600N + (ampR ampC); assay type: functional; also: test concentration or dose not given here
Escherichia coli [9] = test: In vitro synergistic activity against Escherichia coli GC 6266 clinical isolate; assay type: functional
Escherichia coli [10] = test: In vitro synergistic activity against Escherichia coli GC6265 (TEM-1); assay type: functional
Klebsiella aerogenes = test: In vitro synergistic activity against Enterobacter aerogenes GC 6268 clinical isolate; assay type: functional; also: test concentration or dose not given here
Escherichia coli [11] = test: In vitro synergistic activity against Escherichia coli 300 + (TEM-1); assay type: functional
Escherichia coli [12] = test: In vitro synergistic activity against Escherichia coli 300 + (ampR ampC); assay type: functional; also: test concentration or dose not given here
Escherichia coli [13] = test: In vitro synergistic activity against Escherichia coli 4100 (no beta-lactamase); assay type: functional
Escherichia coli [14] = test: In vitro synergistic activity against Escherichia coli ATCC 25922 (no beta-lactamase); assay type: functional; also: test concentration or dose not given here
Escherichia coli [15] = test: In vitro synergistic activity against Escherichia coli ATCC 35218 (TEM-1); assay type: functional
Escherichia coli [16] = test: In vitro synergistic activity against Escherichia coli C600N + (IRT-2); assay type: functional; also: test concentration or dose not given here
Enterobacter cloacae [17] = test: In vitro synergistic activity against Enterobacter cloacae (Imi-1+AmpC); assay type: functional
Enterobacter cloacae [18] = test: In vitro synergistic activity against Enterobacter cloacae SC12629 (AmpC inducible); assay type: functional; also: test concentration or dose not given here
Klebsiella pneumoniae [19] = test: In vitro synergistic activity against Klebsiella pneumoniae GC 6269 clinical isolate; assay type: functional; also: test concentration or dose not given here
Klebsiella pneumoniae [20] = test: In vitro synergistic activity against Klebsiella pneumoniae (ACT-1 + 3 blas, IPM=S); assay type: functional; also: test concentration or dose not given here
Pseudomonas aeruginosa = test: In vitro synergistic activity against Pseudomonas aeruginosa Ps505A1 (AmpC derepressed); assay type: functional
Serratia marcescens = test: In vitro synergistic activity against Serratia marcescens GC 4132 (Amp C); assay type: functional; also: test concentration or dose not given here
Staphylococcus aureus = test: In vitro synergistic activity against Staphylococcus aureus (PC1); assay type: functional; also: test concentration or dose not given here
Escherichia coli [21] = test: In vitro synergistic activity against Escherichia coli C600N + (P99); assay type: functional
[22] = system: Stenotrophomonas maltophilia; test: In vitro synergistic activity against Stenotrophomonas maltophilia 1712(L1); assay type: functional; also: test concentration or dose not given here
Klebsiella pneumoniae [23] = test: In vitro synergistic activity against Klebsiella pneumoniae KC2 (TEM-10); assay type: functional
Escherichia coli [24] = test: In vitro synergistic activity against Escherichia coli GC6267 clinical isolate; assay type: functional
Escherichia coli [25] = test: In vitro synergistic activity against Escherichia coli 4100 + (CCRA); assay type: functional
Escherichia coli [26] = test: In vitro synergistic activity against Escherichia coli C600N + (OXA-10) {PSE-2}; assay type: functional
Escherichia coli [27] = test: In vitro synergistic activity against Escherichia coli C600N + (SHV-1); assay type: functional
Escherichia coli [28] = test: In vitro synergistic activity against Escherichia coli C600N + (SHV-4); assay type: functional
Escherichia coli [29] = test: In vitro synergistic activity against Escherichia coli C600N + (TEM-1); assay type: functional
Escherichia coli [30] = test: In vitro synergistic activity against Escherichia coli C600N + (TEM-10); assay type: functional
Escherichia coli [31] = test: In vitro synergistic activity against Escherichia coli 300 (no beta-lactamase, imp mutant); assay type: functional
Escherichia coli [32] = test: In vitro synergistic activity against Escherichia coli C600N (no beta-lactamase); assay type: functional

T1 sequence (P00807 whole entry): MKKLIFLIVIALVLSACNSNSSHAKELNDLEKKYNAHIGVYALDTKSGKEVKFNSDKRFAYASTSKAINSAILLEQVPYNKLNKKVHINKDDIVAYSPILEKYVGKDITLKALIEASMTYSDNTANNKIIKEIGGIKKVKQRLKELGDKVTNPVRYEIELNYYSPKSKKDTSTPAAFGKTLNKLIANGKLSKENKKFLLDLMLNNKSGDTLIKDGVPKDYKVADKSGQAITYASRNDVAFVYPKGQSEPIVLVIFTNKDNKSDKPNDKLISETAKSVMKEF

COC(=O)/C=C1/C(=O)N2[C@@H](C(=O)O)[C@](C)(COC(C)=O)S(=O)(=O)[C@H]12
pIC50 (Beta-lactamase [1]): 5.02 | pIC50 (Beta-lactamase TEM): 5.57

Cn1nnnc1SCC(=O)OC[C@@]1(C)[C@H](C(=O)O)N2C(=O)/C(=C/C(=O)O)C2S1(=O)=O (some centres undefined)
pIC50 (Beta-lactamase [1]): 6.19 | pIC50 (Beta-lactamase TEM): 6.63

C[C@]1(/C=C/C#N)[C@H](C(=O)O)N2C(=O)/C(=C/C(=O)O)C2S1(=O)=O (some centres undefined)
pIC50 (Beta-lactamase [1]): 5.17 | pIC50 (Beta-lactamase [2]): 3.30 | pIC50 (Beta-lactamase TEM): 4.66

CC(=O)OC[C@@]1(C)[C@H](C(=O)O)N2C(=O)/C(=C/C(=O)O)C2S1(=O)=O (some centres undefined)
pIC50 (Beta-lactamase [1]): 6.15 | pIC50 (Beta-lactamase [2]): 4.12 | pIC50 (Beta-lactamase TEM): 6.74

C[C@]1(COC(=O)Cc2ccc(O)c(O)c2)[C@H](C(=O)[O-])N2C(=O)/C(=C/c3ccccn3)C2S1(=O)=O.[Na+] (some centres undefined)
MIC (Aeromonas sobria): > 64 µg/mL | pIC50 (Beta-lactamase [1]): 7.59 | pIC50 (Beta-lactamase [2]): 6.15 | pIC50 (Beta-lactamase TEM): 7.22 | MIC (Escherichia coli [3]): > 64 µg/mL | MIC (Escherichia coli [4]): > 64 µg/mL | MIC (Escherichia coli [5]): > 64 µg/mL | MIC (Escherichia coli [6]): > 64 µg/mL | MIC (Escherichia coli [7]): > 64 µg/mL | MIC (Escherichia coli [8]): > 64 µg/mL | MIC (Escherichia coli [9]): > 64 µg/mL | MIC (Escherichia coli [10]): > 64 µg/mL | MIC (Klebsiella aerogenes): > 64 µg/mL | MIC (Escherichia coli [11]): > 64 µg/mL | MIC (Escherichia coli [12]): > 64 µg/mL | MIC (Escherichia coli [13]): > 64 µg/mL | MIC (Escherichia coli [14]): > 64 µg/mL | MIC (Escherichia coli [15]): > 64 µg/mL | MIC (Escherichia coli [16]): > 64 µg/mL | MIC (Enterobacter cloacae [17]): > 64 µg/mL | MIC (Enterobacter cloacae [18]): > 64 µg/mL | MIC (Klebsiella pneumoniae [19]): > 64 µg/mL | MIC (Klebsiella pneumoniae [20]): > 64 µg/mL | MIC (Pseudomonas aeruginosa): > 64 µg/mL | MIC (Serratia marcescens): > 64 µg/mL | MIC (Staphylococcus aureus): > 64 µg/mL | MIC (Escherichia coli [21]): > 64 µg/mL | MIC [22]: > 64 µg/mL | MIC (Klebsiella pneumoniae [23]): > 64 µg/mL | MIC (Escherichia coli [24]): > 64 µg/mL | MIC (Escherichia coli [25]): > 64 µg/mL

CC1(C)[C@H](C(=O)O)N2C(=O)/C(=C/C(=O)O)C2S1(=O)=O (some centres undefined)
pIC50 (Beta-lactamase [1]): 5.35 | pIC50 (Beta-lactamase [2]): 3.97 | pIC50 (Beta-lactamase TEM): 5.74

C[C@]1(COC(=O)CCl)[C@H](C(=O)O)N2C(=O)/C(=C/C(=O)O)[C@H]2S1(=O)=O
pIC50 (Beta-lactamase [2]): 5.14 | pIC50 (Beta-lactamase TEM): 6.71

C[C@]1(COC(=O)Cc2ccccc2)[C@H](C(=O)O)N2C(=O)/C(=C/C(=O)O)C2S1(=O)=O (some centres undefined)
pIC50 (Beta-lactamase [1]): 6.27 | pIC50 (Beta-lactamase [2]): 3.24 | pIC50 (Beta-lactamase TEM): 7.81

CC(C)(O/N=C(\C(=O)N[C@@H]1C(=O)N2C(C(=O)[O-])=C(C[n+]3ccccc3)CS[C@H]12)c1csc(N)n1)C(=O)O [CEFTAZIDIME]
MIC (Aeromonas sobria): < 0.06 µg/mL | MIC (Escherichia coli [3]): 1 µg/mL | MIC (Escherichia coli [4]): 32 µg/mL | MIC (Escherichia coli [5]): 64 µg/mL | MIC (Escherichia coli [26]): 0.12 µg/mL | MIC (Escherichia coli [6]): 0.25 µg/mL | MIC (Escherichia coli [27]): 0.5 µg/mL | MIC (Escherichia coli [28]): > 64 µg/mL | MIC (Escherichia coli [7]): 0.5 µg/mL | MIC (Escherichia coli [29]): 0.12 µg/mL | MIC (Escherichia coli [30]): 64 µg/mL | MIC (Escherichia coli [8]): 64 µg/mL | MIC (Escherichia coli [9]): 0.25 µg/mL | MIC (Escherichia coli [10]): < 0.06 µg/mL | MIC (Klebsiella aerogenes): > 64 µg/mL | MIC (Escherichia coli [31]): < 0.06 µg/mL | MIC (Escherichia coli [11]): < 0.06 µg/mL | MIC (Escherichia coli [12]): 4 µg/mL | MIC (Escherichia coli [13]): < 0.06 µg/mL | MIC (Escherichia coli [14]): < 0.06 µg/mL | MIC (Escherichia coli [15]): < 0.06 µg/mL | MIC (Escherichia coli [32]): 0.12 µg/mL | MIC (Escherichia coli [16]): 0.25 µg/mL | MIC (Enterobacter cloacae [17]): 0.5 µg/mL | MIC (Enterobacter cloacae [18]): > 64 µg/mL | MIC (Klebsiella pneumoniae [19]): 0.5 µg/mL | MIC (Klebsiella pneumoniae [20]): > 64 µg/mL | MIC (Pseudomonas aeruginosa): 32 µg/mL | MIC (Serratia marcescens): 0.25 µg/mL | MIC (Staphylococcus aureus): 4 µg/mL | MIC (Escherichia coli [21]): 64 µg/mL | MIC [22]: > 64 µg/mL | MIC (Klebsiella pneumoniae [23]): 64 µg/mL | MIC (Escherichia coli [24]): 0.25 µg/mL | MIC (Escherichia coli [25]): > 64 µg/mL

C[C@]1(COC(=O)Cc2ccccc2)[C@H](C(=O)O)N2C(=O)/C(=C/c3ccccn3)C2S1(=O)=O (some centres undefined)
pIC50 (Beta-lactamase [1]): 9.00 | pIC50 (Beta-lactamase [2]): 6.41 | pIC50 (Beta-lactamase TEM): 7.40

COC(=O)/C=C1/C(=O)N2C1S(=O)(=O)[C@@](C)(CCl)[C@@H]2C(=O)O (some centres undefined)
pIC50 (Beta-lactamase [1]): 4.86 | pIC50 (Beta-lactamase [2]): 3.36
